Assay results published in publication PMC11429243, “The Fluorinated NAD Precursors Enhance FK866 Cytotoxicity by Activating SARM1 in Glioblastoma Cells” (Biology, 2024).

How the values were obtained:
[1] = molecular target: T1, NRK2 (Homo sapiens, UniProt Q9NPI5); assay: HPLC of conversion of NR to NMN by purified enzyme; type: biochemical
T1 construct: gene NMRK2; recombinant human NRK2 (CDS of NM_170678.2) in pET22b, E. coli Rosetta (DE3)

[2] = molecular target: T2, NRK1 (Homo sapiens, UniProt Q9NWW6); assay: HPLC of conversion of NR to NMN by purified enzyme; type: biochemical
T2 construct: gene NMRK1; recombinant human NRK1 (CDS of NM_017881.3) in pET22b, E. coli Rosetta (DE3)
T2 sequence (Q9NWW6 1-199): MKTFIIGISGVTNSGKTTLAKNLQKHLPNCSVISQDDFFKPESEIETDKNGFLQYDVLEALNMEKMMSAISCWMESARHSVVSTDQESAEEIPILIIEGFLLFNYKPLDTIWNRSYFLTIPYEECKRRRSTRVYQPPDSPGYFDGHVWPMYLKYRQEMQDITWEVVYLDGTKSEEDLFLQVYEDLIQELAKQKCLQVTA

T1 sequence (Q9NPI5 whole entry): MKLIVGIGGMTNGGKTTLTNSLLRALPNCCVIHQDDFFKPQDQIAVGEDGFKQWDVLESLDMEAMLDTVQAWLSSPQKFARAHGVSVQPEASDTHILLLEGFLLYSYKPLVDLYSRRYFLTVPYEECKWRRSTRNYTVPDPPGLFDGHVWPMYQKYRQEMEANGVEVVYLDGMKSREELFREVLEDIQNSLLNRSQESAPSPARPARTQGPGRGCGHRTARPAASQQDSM

Compound: NC(=O)c1ccc[n+]([C@@H]2O[C@H](CO)[C@@H](O)[C@H]2O)c1 [NR, nicotinamide riboside]
- HPLC of conversion of NR to NMN by purified enzyme [1]: 17.28 pmol NR/µg/h
- HPLC of conversion of NR to NMN by purified enzyme [2]: 12.03 pmol NR/µg/h
